Results published in ChEMBL document CHEMBL5620356, “Sulfur-fluoride exchange (SuFEx)-enabled lead discovery of AChE inhibitors by fragment linking strategies” (Eur J Med Chem, 2023).
Calls of active or inactive are those of the source. No cut-off for these calls is given here.

Experiments:
Acetylcholinesterase [1] = target: T1, Acetylcholinesterase (Electrophorus electricus, UniProt O42275); experiment: Inhibition of electric eel AChE incubated overnight by two fold serial dilution method
Acetylcholinesterase [2] = target: T1, Acetylcholinesterase; experiment: Inhibition of electric eel AChE using acetylthiocholine iodide as substrate preincubated for 20 mins followed by substrate addition and measured after 20 mins by DTNB reagent based Ellman's method
Cholinesterase = Cholinesterase (Equus caballus, UniProt P81908); experiment: Inhibition of equine serum BuChE using butyrylthiocholine iodide as substrate preincubated for 20 mins followed by substrate addition and measured after 20 mins by DTNB reagent based Ellman's method; format: cell-free
Sequence of Cholinesterase (P81908 whole entry): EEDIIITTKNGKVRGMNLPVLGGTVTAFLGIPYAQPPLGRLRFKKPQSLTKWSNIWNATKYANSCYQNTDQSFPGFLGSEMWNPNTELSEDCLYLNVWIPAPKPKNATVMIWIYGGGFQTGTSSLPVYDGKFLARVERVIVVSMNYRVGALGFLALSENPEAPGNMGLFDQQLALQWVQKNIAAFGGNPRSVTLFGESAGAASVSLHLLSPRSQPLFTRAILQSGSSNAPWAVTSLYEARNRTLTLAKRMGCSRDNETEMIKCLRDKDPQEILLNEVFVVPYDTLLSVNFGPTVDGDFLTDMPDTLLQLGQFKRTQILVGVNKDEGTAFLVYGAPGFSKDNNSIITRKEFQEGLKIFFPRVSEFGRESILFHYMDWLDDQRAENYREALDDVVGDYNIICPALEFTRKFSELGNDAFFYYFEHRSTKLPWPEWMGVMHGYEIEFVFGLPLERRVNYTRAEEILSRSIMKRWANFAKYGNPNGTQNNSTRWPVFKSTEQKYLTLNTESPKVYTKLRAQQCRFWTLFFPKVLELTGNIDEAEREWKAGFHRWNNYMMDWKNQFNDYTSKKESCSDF

[3] = target: Cholinesterase (Equus caballus) (UniProt P81908); experiment: Inhibition of equine serum BuChE using butyrylthiocholine iodide as substrate at 20 uM preincubated for 20 mins followed by substrate addition and measured after 20 mins by DTNB reagent based Ellman's method; format: cell-free; settings: time 40.0 min
Sequence of Cholinesterase (Equus caballus) (P81908 whole entry): as above

[4] = target: Acetylcholinesterase (Electrophorus electricus) (UniProt O42275); experiment: Inhibition of electric eel AChE using acetylthiocholine iodide as substrate at 20 uM preincubated for 20 mins followed by substrate addition and measured after 20 mins by DTNB reagent based Ellman's method; settings: time 40.0 min
Sequence of Acetylcholinesterase (Electrophorus electricus) (O42275 24-633 limits assumed): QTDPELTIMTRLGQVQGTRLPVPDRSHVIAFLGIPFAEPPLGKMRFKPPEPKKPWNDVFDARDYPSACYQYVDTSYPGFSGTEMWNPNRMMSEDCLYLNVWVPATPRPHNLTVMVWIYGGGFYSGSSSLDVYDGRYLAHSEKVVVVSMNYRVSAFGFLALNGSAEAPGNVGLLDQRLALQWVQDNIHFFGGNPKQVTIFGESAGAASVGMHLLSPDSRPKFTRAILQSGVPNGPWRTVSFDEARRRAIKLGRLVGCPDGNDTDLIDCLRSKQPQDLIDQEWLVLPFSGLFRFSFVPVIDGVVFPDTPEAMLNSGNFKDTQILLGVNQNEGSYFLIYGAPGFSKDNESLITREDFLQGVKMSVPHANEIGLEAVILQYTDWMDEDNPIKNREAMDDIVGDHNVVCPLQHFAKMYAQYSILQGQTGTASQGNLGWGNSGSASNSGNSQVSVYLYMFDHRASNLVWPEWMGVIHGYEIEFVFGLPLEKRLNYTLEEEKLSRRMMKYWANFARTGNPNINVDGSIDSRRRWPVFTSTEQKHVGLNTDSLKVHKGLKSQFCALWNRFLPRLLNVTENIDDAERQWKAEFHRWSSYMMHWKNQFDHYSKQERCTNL

[5] = Permeability of the compound in PBS at pH 7.4 by incubated for 18 hrs by […] assay based UV- spectroscopy; format: ADME; settings: read-out: permeability
Acetylcholinesterase [6] = target: T1, Acetylcholinesterase; experiment: Inhibition of electric eel AChE assessed as inhibition constant using acetylthiocholine iodide as substrate by Lineweaver-Burk plot analysis
Mus musculus [7] = experiment: Neuroprotective activity against amyloid beta 1-42 peptide induced ICR mouse assessed as decrease in cognitive function impairment at 5 mg/kg,po administration; format: functional, organism-based
Mus musculus [8] = experiment: Neuroprotective activity against amyloid beta 1-42 peptide induced ICR mouse assessed as increase in number of neurons in hippocampus at 5 mg/kg,po administration by hematoxylin-eosin staining based microscopic analysis; format: functional, organism-based
Mus musculus [9] = experiment: Neuroprotective activity against amyloid beta 1-42 peptide induced ICR mouse assessed as reduction in latency at 5 mg/kg,po administration; format: functional, organism-based
PC-12 = experiment: Neuroprotective activity against H2O2-induced injury in rat PC12 cells assessed as increase in cell viability at 25 uM preincubated for 3 hrs followed by H2O2 addition and measured after 24 hrs by MTT assay relative to control; format: functional; settings: time 27 hrs

T1 sequence (O42275 whole entry): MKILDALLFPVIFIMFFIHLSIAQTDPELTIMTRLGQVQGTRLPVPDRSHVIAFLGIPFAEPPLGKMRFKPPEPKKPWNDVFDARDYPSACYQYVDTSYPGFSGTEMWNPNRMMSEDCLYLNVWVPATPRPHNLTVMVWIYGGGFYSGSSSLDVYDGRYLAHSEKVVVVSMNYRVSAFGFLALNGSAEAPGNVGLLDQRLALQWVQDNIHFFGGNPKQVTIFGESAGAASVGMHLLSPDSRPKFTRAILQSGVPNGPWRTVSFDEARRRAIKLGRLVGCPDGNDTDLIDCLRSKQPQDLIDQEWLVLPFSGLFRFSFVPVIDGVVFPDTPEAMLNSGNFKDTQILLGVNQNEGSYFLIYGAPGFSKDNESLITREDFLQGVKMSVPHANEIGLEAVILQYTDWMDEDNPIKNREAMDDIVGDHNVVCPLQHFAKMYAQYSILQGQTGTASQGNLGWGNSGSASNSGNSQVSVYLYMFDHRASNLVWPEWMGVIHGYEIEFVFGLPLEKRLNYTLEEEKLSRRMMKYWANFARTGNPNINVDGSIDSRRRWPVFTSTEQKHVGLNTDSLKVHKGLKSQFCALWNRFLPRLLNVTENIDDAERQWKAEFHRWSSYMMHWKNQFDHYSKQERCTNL

Compound	IC50 (Acetylcholinesterase [1])	IC50 (Acetylcholinesterase [2])	IC50 (Cholinesterase)	Papp at 18 h [5]	further results
CN1C(=O)C(F)=C[C@@H]2[C@H]1C[C@H]2S(=O)(=O)CC1CCN(Cc2ccccc2F)CC1	5.06 µM	5.38 µM			
CN1C(=O)C(F)=C[C@@H]2[C@H]1C[C@H]2S(=O)(=O)N1CCC(Cc2ccc(F)cc2)CC1	8.35 µM	7.87 µM			
CN1C(=O)C(F)=C[C@@H]2[C@H]1C[C@@]2(Br)S(=O)(=O)F			14 µM		
CN1C(=O)C(F)=C[C@@H]2[C@H]1C[C@H]2S(=O)(=O)N1CCOCC1	1.8 µM	1.3 µM			
CN1C(=O)C(F)=C[C@@H]2[C@H]1C[C@H]2S(=O)(=O)NCCc1ccc(F)cc1	3.37 µM	4.56 µM			
O=C1N[C@@H]2C[C@@H](S(=O)(=O)F)[C@@H]2c2c(Cl)cccc21		6.82 µM	7.98 µM		inhibition [3]: Active; inhibition [4]: Active
CN1C(=O)C(F)=C[C@@H]2[C@H]1C[C@H]2S(=O)(=O)NCCc1ccccc1F	12.5 µM	10.8 µM			
C[C@]12CC[C@H]3[C@@H](CCC4=CC(=O)CC[C@@]43C)[C@@H]1CC[C@@H]2O [TESTOSTERONE]				1.8 ×10⁻⁶ cm/s	
CC(=O)[C@H]1CC[C@H]2[C@@H]3CCC4=CC(=O)CC[C@]4(C)[C@H]3CC[C@]12C [PROGESTERONE]				16.4 ×10⁻⁶ cm/s	
O=C1N[C@@H]2C[C@@H](S(=O)(=O)NCCC3CCN(Cc4ccccc4)CC3)[C@@H]2c2c(Cl)cccc21	0.099 µM	0.094 µM		13.1 ×10⁻⁶ cm/s	Ki (Acetylcholinesterase [6]): 0.128 µM; Activity (Mus musculus [7]): Active; Activity (Mus musculus [8]): Active; Activity (Mus musculus [9]): Active; Activity (PC-12): 77.2%
CN1C(=O)c2ccccc2[C@@H]2[C@H]1C[C@H]2S(=O)(=O)F			12 µM		
CN1C(=O)C(F)=C[C@@H]2[C@H]1C[C@H]2S(=O)(=O)F		18.8 µM			
CN1C(C(=O)Nc2ccccn2)=C(O)c2ccccc2S1(=O)=O [PIROXICAM]				9.9 ×10⁻⁶ cm/s	
O=C1N[C@@H]2C[C@@H](S(=O)(=O)F)[C@@H]2c2c(Br)cccc21			3.3 µM		inhibition [3]: Active; inhibition [4]: Active
CN1C(=O)C(F)=C[C@@H]2[C@H]1C[C@H]2S(=O)(=O)NCCC1CCN(Cc2ccccc2)CC1	0.34 µM	0.38 µM		12.3 ×10⁻⁶ cm/s	
O=C1N[C@@H]2C[C@@H](S(=O)(=O)NCCC3CCN(Cc4ccccc4)CC3)[C@@H]2c2c(Br)cccc21	0.28 µM	0.24 µM		10 ×10⁻⁶ cm/s	
CCCNS(=O)(=O)[C@@H]1C[C@@H]2[C@H]1C=C(F)C(=O)N2C	5.59 µM	6.78 µM			
CC1=C[C@@H]2[C@@H](C[C@@]2(Br)S(=O)(=O)F)N(C)C1=O			10.7 µM		
Cc1ccc2c(c1)[C@H]1[C@H](S(=O)(=O)F)C[C@H]1NC2=O			5.03 µM		
